Some test systems named below: EKVX; IGROV-1; SK-OV-3; SK-MEL-5; SK-MEL-2; HL-60; KM12; SNB-19; CAKI-1; HOP-92; BT-549; HCC 2998; HOP-62; HCT-116; UO-31; SK-MEL-28; MDA-N; OVCAR-8; SF-295; SNB-75.
Assay in all cases: NCI anticancer screen, dose series, 48 h

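Grown in 96-well plates, cells were treated for 48 hours with each compound at five concentrations. Insufficient inhibition: endpoint recorded as highest concentration tested. GI50 = concentration required for 50% inhibition of growth.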 The source made the active and inactive calls. Cut-off read from the data, not from the text of the source: active = GI50 up to about 1.1 µM and inactive = higher.

The text below walks through data of ChEMBL document CHEMBL1201862, “PubChem BioAssay data set” (2004).

Turning to `COC(=O)C12OCC34C(CC5C(C)=C(O)C(=O)CC5(C)C3C(O)C1O)OC(=O)C(OC(=O)C=C(C)C)C24` (stereo not given), the GI50 is > 469 µM (inactive) in the assay on EKVX; 330 µM (inactive) with IGROV-1; > 500 µM (inactive) with SK-OV-3; 191 µM (inactive) with SK-MEL-5; > 500 µM (inactive) in the assay with SK-MEL-2; 498 µM (inactive) in the assay with HL-60. The GI50 is 411 µM (inactive) in the assay with KM12; 368 µM (inactive) in the assay with SNB-19; > 500 µM (inactive) in the assay on CAKI-1; 234 µM (inactive) with HOP-92; 0.26 µM (active) in the assay with BT-549; 453 µM (inactive) with HCC 2998. Besides, the GI50 is > 500 µM (inactive) in the assay on HOP-62; > 489 µM (inactive) in the assay with HCT-116; > 500 µM (inactive) in the assay on UO-31; 423 µM (inactive) in the assay with SK-MEL-28; < 0.215 µM (active) with MDA-N; > 500 µM (inactive) in the assay with OVCAR-8. The GI50 is > 500 µM (inactive) in the assay on SF-295 and 318 µM (inactive) with SNB-75.

As to `CC(C)(C)NC1=NC(C(F)(F)F)(C(F)(F)F)NC(=O)N1`, the GI50 in the assay with EKVX was 84.1 µM (inactive); with IGROV-1, 64.1 µM (inactive); in the assay with SK-OV-3, > 100 µM (inactive); with SK-MEL-5 it was 24.8 µM (inactive); in the assay on SK-MEL-2 it was 65.2 µM (inactive); in the assay on HL-60, 16.5 µM (inactive). In addition, the GI50 with KM12 is 68.4 µM (inactive); with SNB-19, 67.3 µM (inactive); with CAKI-1 it was 46.1 µM (inactive); in the assay on HOP-92, 20 µM (inactive); in the assay on BT-549, 16.9 µM (inactive); in the assay with HCC 2998, 27.4 µM (inactive). Further, the GI50 with HOP-62 was > 100 µM (inactive); with HCT-116 it was 38.9 µM (inactive); in the assay on UO-31, 53.6 µM (inactive); with SK-MEL-28, 32.7 µM (inactive); in the assay with MDA-N it was 49.2 µM (inactive); with OVCAR-8, 80.4 µM (inactive). The GI50 with SF-295 was 39.7 µM (inactive); in the assay with SNB-75 it was 75.2 µM (inactive).

As to `O=c1c(C(c2cccnc2)c2c(O)oc3cc(O)ccc3c2=O)c(O)oc2cc(O)ccc12`, the GI50 in the assay on EKVX, in the assay on IGROV-1, in the assay with SK-OV-3, in the assay with SK-MEL-5, in the assay with SK-MEL-2 and in the assay with HL-60 was > 100 µM (inactive) in each case. The GI50 in the assay with KM12, in the assay on SNB-19, with CAKI-1, in the assay on HOP-92, in the assay on BT-549 and in the assay with HCC 2998 was > 100 µM (inactive) in each case. The GI50 with HOP-62, in the assay on HCT-116, with UO-31, with SK-MEL-28, in the assay with MDA-N and in the assay with OVCAR-8 was > 100 µM (inactive) throughout. In addition, the GI50 in the assay with SF-295 and with SNB-75 was > 100 µM (inactive) in each case.

For `COC(=O)/C=C/C1(O)C=CC(=O)C=C1`, the GI50 is 3.61 µM (inactive) in the assay with EKVX; 2.69 µM (inactive) in the assay on IGROV-1; 17 µM (inactive) in the assay on SK-OV-3; 4.65 µM (inactive) in the assay with SK-MEL-5; 6.32 µM (inactive) in the assay on SK-MEL-2; 2.38 µM (inactive) in the assay with HL-60. In addition, the GI50 was 2.32 µM (inactive) with KM12; 3.83 µM (inactive) in the assay on SNB-19; 1.41 µM (inactive) in the assay with CAKI-1; 3.66 µM (inactive) with HOP-92; 5.27 µM (inactive) in the assay with BT-549; 7.52 µM (inactive) with HCC 2998. In addition, the GI50 in the assay with HOP-62 was 4.37 µM (inactive); in the assay on HCT-116, 1.88 µM (inactive); with UO-31, 1.7 µM (inactive); in the assay with SK-MEL-28, 3.44 µM (inactive); in the assay with MDA-N, 1.89 µM (inactive); in the assay on OVCAR-8 it was 3.4 µM (inactive). In addition, the values for the GI50 in the assay on SF-295 and in the assay with SNB-75 were 11 µM (inactive) and 9.86 µM (inactive), respectively.

For `c1csc(-c2csc(-c3ccsc3)c2)c1`, the GI50 with EKVX is > 65.8 µM (inactive); in the assay on IGROV-1, > 100 µM (inactive); in the assay with SK-OV-3 it was > 100 µM (inactive); in the assay with SK-MEL-5 it was > 100 µM (inactive); in the assay on SK-MEL-2 it was > 100 µM (inactive); in the assay with HL-60 it was > 74.6 µM (inactive). Also, the GI50 in the assay with KM12, with SNB-19, in the assay with CAKI-1, with HOP-92, with BT-549 and with HCC 2998 was > 100 µM (inactive) each time. In addition, the GI50 in the assay with HOP-62 was > 100 µM (inactive); in the assay on HCT-116 it was > 100 µM (inactive); with UO-31, > 70.1 µM (inactive); with SK-MEL-28, > 100 µM (inactive); in the assay on MDA-N, > 100 µM (inactive); with OVCAR-8 it was > 100 µM (inactive). Further, the GI50 with SF-295 was > 100 µM (inactive); in the assay with SNB-75 it was > 92 µM (inactive).

Regarding `COc1ccc(/C=C(\C#N)c2ccccn2)cc1OC`, the GI50 is 5.4 µM (inactive) in the assay on EKVX; 51.2 µM (inactive) with IGROV-1; 29.8 µM (inactive) in the assay with SK-OV-3; 25.1 µM (inactive) with SK-MEL-5; 51.2 µM (inactive) in the assay on SK-MEL-2; 27.1 µM (inactive) with HL-60. In addition, the GI50 in the assay on KM12 was 53.1 µM (inactive); in the assay with SNB-19 it was 39.8 µM (inactive); in the assay with CAKI-1, 60.7 µM (inactive); in the assay with HOP-92, 17 µM (inactive); in the assay with BT-549 it was 18.6 µM (inactive); in the assay on HCC 2998 it was 65.2 µM (inactive). Besides, the GI50 was 36.7 µM (inactive) in the assay with HOP-62; 31.7 µM (inactive) with HCT-116; 29.8 µM (inactive) in the assay on UO-31; 38.4 µM (inactive) in the assay on SK-MEL-28; 42.4 µM (inactive) in the assay on MDA-N; > 100 µM (inactive) in the assay on OVCAR-8. The GI50 is 26.8 µM (inactive) with SF-295 and 21.3 µM (inactive) in the assay with SNB-75.

Consider `Oc1nc2c(c(-c3ccc(Br)cc3)n1)COC/C2=C\c1ccc(Br)cc1`, for which the GI50 in the assay on EKVX, with IGROV-1, with SK-OV-3, in the assay on SK-MEL-5, in the assay on SK-MEL-2 and in the assay on HL-60 was > 50 µM (inactive) throughout. Also, the GI50 with KM12, in the assay on SNB-19, in the assay on CAKI-1, in the assay with HOP-92, with BT-549 and in the assay on HCC 2998 was > 50 µM (inactive) each time. The GI50 with HOP-62, in the assay with HCT-116, in the assay with UO-31, in the assay on SK-MEL-28, in the assay on MDA-N and in the assay on OVCAR-8 was > 50 µM (inactive) each time. The GI50 in the assay with SF-295 and in the assay with SNB-75 was > 50 µM (inactive) throughout.

Turning to `CCCCCCCCCCCCCCCC(=O)OCC(C[As](=O)(O)O)OC(=O)CCCCCCCCCCCCCCC` (stereo not given), the GI50 is > 100 µM (inactive) with EKVX; > 100 µM (inactive) with IGROV-1; > 58.2 µM (inactive) in the assay with SK-OV-3; > 100 µM (inactive) in the assay with SK-MEL-5; > 100 µM (inactive) in the assay on SK-MEL-2; > 100 µM (inactive) with HL-60. Moreover, the GI50 in the assay with KM12 is > 100 µM (inactive); with SNB-19, > 56.8 µM (inactive); in the assay on CAKI-1, 97.3 µM (inactive); in the assay on HOP-92, > 72.6 µM (inactive); in the assay on BT-549 it was > 100 µM (inactive); with HCC 2998 it was > 100 µM (inactive). Besides, the GI50 with HOP-62 was > 70.3 µM (inactive); in the assay on HCT-116, > 100 µM (inactive); with UO-31, > 100 µM (inactive); in the assay on SK-MEL-28, > 100 µM (inactive); with MDA-N, > 100 µM (inactive); in the assay on OVCAR-8 it was > 100 µM (inactive). The GI50 with SF-295 was > 82.6 µM (inactive); in the assay on SNB-75 it was 33 µM (inactive).

As for `COc1ccc(NC2Oc3cc4c(cc3C(c3cc(OC)c(OC)c(OC)c3)C2C)OCO4)cc1` (stereo not given), the GI50 in the assay with EKVX is 3.56 µM (inactive); in the assay on IGROV-1, 0.771 µM (active); in the assay on SK-OV-3, 0.948 µM (active); with SK-MEL-5, 0.33 µM (active); in the assay with SK-MEL-2 it was 0.538 µM (active); in the assay on HL-60 it was 0.248 µM (active). The GI50 with KM12 was 0.381 µM (active); with SNB-19 it was 0.607 µM (active); in the assay on CAKI-1, 0.51 µM (active); in the assay on HOP-92, 0.92 µM (active); in the assay with BT-549, 1.04 µM (active); in the assay with HCC 2998, 0.738 µM (active). In addition, the GI50 is 0.294 µM (active) in the assay with HOP-62; 0.364 µM (active) in the assay with HCT-116; 0.891 µM (active) in the assay with UO-31; 1.32 µM (inactive) in the assay with SK-MEL-28; 0.0811 µM (active) with MDA-N; 0.655 µM (active) in the assay on OVCAR-8. The GI50 was 0.268 µM (active) in the assay with SF-295 and 0.301 µM (active) in the assay with SNB-75.

Turning to `Nc1ccc(S(=O)(=O)Nc2nc3ccccc3nc2N2CCCCC2)cc1`, the GI50 in the assay with EKVX was > 100 µM (inactive); in the assay on IGROV-1 it was 80.9 µM (inactive); in the assay on SK-OV-3 it was > 100 µM (inactive); with SK-MEL-5, 91 µM (inactive); with SK-MEL-2, 88.1 µM (inactive); in the assay with HL-60 it was 46.3 µM (inactive). For the same compound, the GI50 with KM12 is 70.1 µM (inactive); with SNB-19 it was > 100 µM (inactive); in the assay with CAKI-1, > 100 µM (inactive); with HOP-92 it was 53 µM (inactive); in the assay on BT-549, 23.8 µM (inactive); with HCC 2998, 33.7 µM (inactive). In addition, the GI50 with HOP-62 is > 100 µM (inactive); with HCT-116, 80.7 µM (inactive); in the assay on UO-31, 11.3 µM (inactive); with SK-MEL-28, 92.9 µM (inactive); with MDA-N, > 100 µM (inactive); with OVCAR-8, 61.8 µM (inactive). Also, the GI50 was 71.4 µM (inactive) in the assay on SF-295 and 24.3 µM (inactive) in the assay with SNB-75.
